# According to patent US7790721B2, “Pyrroloquinoxalinone inhibitors of poly(ADP-ribose)polymerase” (Abbott Laboratories, priority 2006, dated 2010):
# pKi: −log10 of the molar value. Read-outs that look alike come from different tables or passages of the source.
# Target: T1, PARP-1 (Homo sapiens, UniProt P09874)
# T1 construct: purchased Trevigen (Gaithersburg, Md.); host or cells: E. coli
# Assay: PARP1 assay (inhibition of PARP, [3H]-NAD+ / biotinylated histone H1, FlashPlate scintillation)
# Type: biochemical
# [1] = recombinant human PARP, 1 nM enzyme, 1.5 μM [3H]-NAD+, inhibition curves at various substrate concentrations, read-out: PARP-1 (Ki)
# Experimental: Nicotinamide[2,5′,8-3H]adenine dinucleotide and strepavidin SPA beads were purchased from Amersham Biosiences (Buckinghamshire, U.K.). […] NAD^+, histone, aminobenzamide, 3-amino benzamide and Calf Thymus DNA (dcDNA) were purchased from Sigma (St. Louis, Mo.). […] Biotinylated histone H1 was prepared by treating the protein with Sulfo-NHS-LC-Biotin from Pierce (Rockford, Ill.). The biotinylation reaction was conducted by slowly and intermittently adding 3 equivalents of 10 mM Sulfo-NHS-LC-Biotin to 100 μM Histone H1 in phosphate-buffered saline, pH 7.5, at 4° C. with gentle vortexing over 1 minute followed by subsequent 4° C. incubation for 1 hour. Streptavidin coated (FLASHPLATE PLUS®) microplates were purchased from Perkin Elmer (Waltham, Mass.).
# PARP1 assay was conducted in PARP assay buffer containing 50 mM Tris pH 8.0, 1 mM DTT, 4 mM MgCl2. […] Auto reactions utilizing SPA bead-based detection were carried out in 100 μL volumes in white 96 well plates. Reactions were initiated by adding 50 μl of 2× NAD^+ substrate mixture to 50 μL of 2× enzyme mixture containing PARP and DNA. […] 170 μL of the stopped reaction mixtures were transferred to streptavidin FLASHPLATE PLUS®, incubated for 1 hour, and counted using a TOPCOUNT® microplate scintillation counter from Perkin Elmer (Waltham, Mass.).
# T1 sequence (P09874 whole entry): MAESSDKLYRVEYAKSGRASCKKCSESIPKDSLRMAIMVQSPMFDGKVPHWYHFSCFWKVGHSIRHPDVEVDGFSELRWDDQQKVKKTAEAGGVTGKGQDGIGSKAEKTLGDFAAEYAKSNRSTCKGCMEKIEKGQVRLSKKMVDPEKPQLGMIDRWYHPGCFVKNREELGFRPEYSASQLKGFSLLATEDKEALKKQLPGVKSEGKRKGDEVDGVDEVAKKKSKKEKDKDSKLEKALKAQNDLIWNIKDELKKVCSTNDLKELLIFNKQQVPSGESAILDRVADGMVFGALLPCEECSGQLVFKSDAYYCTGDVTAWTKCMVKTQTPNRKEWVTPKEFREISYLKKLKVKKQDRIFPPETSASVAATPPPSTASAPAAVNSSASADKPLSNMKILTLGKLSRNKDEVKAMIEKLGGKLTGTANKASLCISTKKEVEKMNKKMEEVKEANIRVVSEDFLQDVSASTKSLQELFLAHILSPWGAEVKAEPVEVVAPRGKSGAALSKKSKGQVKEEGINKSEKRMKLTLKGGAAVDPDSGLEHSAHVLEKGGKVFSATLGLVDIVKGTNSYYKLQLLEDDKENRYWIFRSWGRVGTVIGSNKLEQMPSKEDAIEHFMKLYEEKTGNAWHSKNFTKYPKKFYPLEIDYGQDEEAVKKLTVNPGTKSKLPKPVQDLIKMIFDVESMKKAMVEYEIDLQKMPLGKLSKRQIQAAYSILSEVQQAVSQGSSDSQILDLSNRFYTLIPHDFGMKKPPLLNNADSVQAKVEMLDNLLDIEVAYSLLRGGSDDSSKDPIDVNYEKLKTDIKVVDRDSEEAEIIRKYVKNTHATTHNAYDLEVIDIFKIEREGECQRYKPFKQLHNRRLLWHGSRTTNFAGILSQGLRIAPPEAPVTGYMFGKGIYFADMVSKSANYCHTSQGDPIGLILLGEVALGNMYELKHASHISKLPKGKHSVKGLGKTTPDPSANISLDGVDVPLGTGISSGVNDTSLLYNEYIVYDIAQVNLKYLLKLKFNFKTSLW
Molecule,pKi [1],pKi
"O=C(Nc1nccs1)c1ccc2c(c1)[nH]c(=O)c1cccn12 [Example 84, 4-oxo-N-1,3-thiazol-2-yl-4,5-dihydropyrrolo[1,2-a]quinoxaline-7-carboxamide]",7.01,
"CCS(=O)(=O)N(Cc1ccc2[nH]c(=O)c3cccn3c2c1)C1CCC1 [Example 53, N-cyclobutyl-N-[(4-oxo-4,5-dihydropyrrolo[1,2-a]quinoxalin-8-yl)methyl]ethanesulfonamide]",6.04,
"CN(C)C1CCC(NCc2ccc3c(c2)[nH]c(=O)c2cccn23)CC1 (stereo not drawn) [Example 72, 7-({[4-(dimethylamino)cyclohexyl]amino}methyl)pyrrolo[1,2-a]quinoxalin-4(5H)-one]",6.79,
"CN(Cc1ccccc1)Cc1ccc2c(c1)NC(=O)C1CCCN21 (stereo not drawn) [Example 49, 7-{[benzyl(methyl)amino]methyl}-1,2,3,3a-tetrahydropyrrolo[1,2-a]quinoxalin-4(5H)-one]",5.87,
"O=c1[nH]c2cc(CN3CCOCC3)ccc2n2ccnc12 [Example 25, 7-(morpholin4-ylmethyl)imidazo[1,2-a]quinoxalin-4(5H)-one]",5.55,
"CC(C)N(Cc1ccc2[nH]c(=O)c3cccn3c2c1)S(=O)(=O)c1ccccc1 [Example 54, N-isopropyl-N-[(4-oxo-4,5-dihydropyrrolo[1,2-a]quinoxalin-8-yl)methyl]benzenesulfonamide]",6.20,
"CC(C)N(C)Cc1ccc2c(c1)NC(=O)C1CCCCN21 (stereo not drawn) [Example 41, 3-{[isopropyl(methyl)amino]methyl}-7,8,9,10-tetrahydro-5H-pyrido[1,2-a]quinoxalin-6(6aH)-one]",6.55,
"CN1CCN(Cc2ccc3c(c2)CNC(=O)c2cccn2-3)CC1 [Example 29, 8-((4-methylpiperazin-1-yl)methyl)-5,6-dihydro-4H-pyrrolo[1,2-a][1,4]benzodiazepin-4-one]",5.82,
"O=c1[nH]c2cc(CNCCCN3CCCCC3)ccc2n2cccc12 [Example 69, 7-{[(3-piperidin-1-ylpropyl)amino]methyl}pyrrolo[1,2-a]quinoxalin-4(5H)-one]",6.89,
"CN(C)CCNC(=O)c1ccc2c(c1)[nH]c(=O)c1cccn12 [Example 68, N-[2-(dimethylamino)ethyl]-4-oxo-4,5-dihydropyrrolo[1,2-a]quinoxaline-7-carboxamide]",5.79,
"O=c1[nH]c2ccc(CN3CCCCC3)cc2n2cccc12 [Example 19, 8-(piperidin-1-ylmethyl)pyrrolo[1,2-a]quinoxalin-4(5H)-one]",7.33,
"O=C1Nc2cc(CNC3CCCCC3)ccc2N2CCCCC12 (stereo not drawn) [Example 36, 3-[(cyclohexylamino)methyl]-7,8,9,10-tetrahydro-5H-pyrido[1,2-a]quinoxalin-6(6aH)-one]",5.46,
"O=C1NCc2cc(CN3CCCC3)ccc2-n2cccc21 [Example 27, 8-(pyrrolidin-1-ylmethyl)-5,6-dihydro-4H-pyrrolo[1,2-a][1,4]benzodiazepin-4-one]",5.95,
"CN(C)Cc1ccc2c(c1)[nH]c(=O)c1nccn12 [Example 23, 7-((dimethylamino)methyl)imidazo[1,2-a]quinoxalin-4(5H)-one]",6.28,
"O=c1[nH]c2ccc(CNCc3ccccc3)cc2n2cccc12 [Example 20, 8-((benzylamino)methyl)pyrrolo[1,2-a]quinoxalin-4(5H)-one]",6.88,
"CN(C)C1CCC(NC(=O)c2ccc3c(c2)[nH]c(=O)c2cccn23)CC1 (stereo not drawn) [Example 74, N-[4-(dimethylamino)cyclohexyl]-4-oxo4,5-dihydropyrrolo[1,2-a]quinoxaline-7-carboxamide]",6.11,
"CC(C)NCc1ccc2c(c1)CNC(=O)c1cccn1-2 [Example 28, 8-((isopropylamino)methyl)-5,6-dihydro-4H-pyrrolo[1,2-a][1,4]benzodiazepin-4-one]",5.83,

Molecule,pKi [1],pKi
"CN1CCN(Cc2ccc3c(c2)NC(=O)C2CCCCN32)CC1 (stereo not drawn) [Example 42, 3-[(4-methylpiperazin-1-yl)methyl]-7,8,9,10-tetrahydro-5H-pyrido[1,2-a]quinoxalin-6(6aH)-one]",5.11,
"8-(((2-ethoxyethyl)(methyl)amino)methyl)-5,6-dihydro-4H-pyrrolo[1,2-a][1,4]benzodiazepin-4-one [Example 30]",5.58,
"CCN(C)Cc1ccc2c(c1)NC(=O)C1CCCN21 (stereo not drawn) [Example 46, 7-{[ethyl(methyl)amino]methyl}-1,2,3,3a-tetrahydropyrrolo[1,2-a]quinoxalin-4(5H)-one]",6.89,
"NC1CCN(C(=O)c2ccc3c(c2)[nH]c(=O)c2cccn23)CC1 [Example 87, 7-[(4-aminopiperidin-1-yl)carbonyl]pyrrolo[1,2-a]quinoxalin-4(5H)-one]",7.11,
"O=c1[nH]c2cc(CNCc3ccccc3)ccc2n2cccc12 [Example 11, 7-((benzylamino)methyl)pyrrolo[1,2-a]quinoxalin-4(5H)-one]",,6.90
"O=C1CCCN1Cc1ccc2c(c1)[nH]c(=O)c1cccn12 [Example 52, 7-[(2-oxopyrrolidin-1-yl)methyl]pyrrolo[1,2-a]quinoxalin-4(5H)-one]",6.16,
"CN(Cc1ccc2c(c1)NC(=O)C1CCCCN21)C1CCCCC1 (stereo not drawn) [Example 40, 3-{[cyclohexyl(methyl)amino]methyl}-7,8,9,10-tetrahydro-5H-pyrido[1,2-a]quinoxalin-6(6aH)-one]",5.82,
"O=C1NCc2cc(CNCc3ccccc3)ccc2-n2cccc21 [Example 32, 8-((benzylamino)methyl)-5,6-dihydro-4H-pyrrolo[1,2-a][1,4]benzodiazepin-4-one]",6.09,
"O=C(NCCCCc1ccccc1)c1ccc2c(c1)[nH]c(=O)c1cccn12 [Example 81, 4-oxo-N-(4-phenylbutyl)-4,5-dihydropyrrolo[1,2-a]quinoxaline-7-carboxamide]",7.03,
"O=C(Nc1ccc(N2CCN(Cc3ccccc3)CC2)cc1)c1ccc2c(c1)[nH]c(=O)c1cccn12 [Example 83, N-[4-(4-benzylpiperazin-1-yl)phenyl]-4-oxo4,5-dihydropyrrolo[1,2-a]quinoxaline-7-carboxamide]",7.24,
"O=c1[nH]c2ccc(CNC3CCCC3)cc2n2cccc12 [Example 18, 8-((cyclopentylamino)methyl)pyrrolo[1,2-a]quinoxalin-4(5H)-one]",7.10,
"O=C(NCCN1CCSCC1)c1ccc2c(c1)[nH]c(=O)c1cccn12 [Example 78, 4-oxo-N-(2-thiomorpholin-4-ylethyl)-4,5-dihydropyrrolo[1,2-a]quinoxaline-7-carboxamide]",7.07,
"CC(=O)N(Cc1ccc2c(c1)[nH]c(=O)c1cccn12)C1CCC1 [Example 55, N-cyclobutyl-N-[(4-oxo-4,5-dihydropyrrolo[1,2-a]quinoxalin-7-yl)methyl]acetamide]",5.82,
"CN(Cc1ccc2c(c1)NC(=O)C1CCCN21)C1CCCCC1 (stereo not drawn) [Example 47, 7-{[cyclohexyl(methyl)amino]methyl}-1,2,3,3a-tetrahydropyrrolo[1,2-a]quinoxalin-4(5H)-one]",5.67,
"O=C1NCc2cc(CNC3CCCC3)ccc2-n2cccc21 [Example 33, 8-((cyclopentylamino)methyl)-5,6-dihydro-4H-pyrrolo[1,2-a][1,4]benzodiazepin-4-one]",6.26,
"CS(=O)(=O)N(Cc1ccc2[nH]c(=O)c3cccn3c2c1)C1CC1 [Example 51, N-cyclopropyl-N-[(4-oxo4,5-dihydropyrrolo[1,2-a]quinoxalin-8-yl)methyl]methanesulfonamide]",6.11,
